From patent US20080200538A1, “Inhibition of Monocyte Survival, Differentiation, or Proliferation” (The Ohio State University Research Foundation, priority 2005, published 2008)

Columns and labels:
THP-1 cells [1] = test: Reverse-phase HPLC of extracts of treated THP-1 cells (conversion of compound); conditions: extracts of THP-1 cells, data not shown
U937 cells [2] = test: Cell survival and apoptosis by calcein AM/PI staining; format: cell-based, human; conditions: U937, 50 μM
Protocol: (§1) FIG. 2. Apigenin induces cell death in monocytic leukemia cells. THP-1 and U937 leukemia cells were treated for various lengths of time with 50 μM apigenin or left untreated (NT) and stained with calcein AM and PI as described in Material and Methods to evaluate the percentage of cell survival. (A) THP cells after 12 h cells treated with 50 μM apigenin or with DMSO (NT). (B) The percentage of cell survival represented by means ±SEM (N=3).
(§2) To investigate apoptosis, cells were plated at a density of 1×10^6 cells/well. After treatment, cells were collected and washed in PBS. Cells were then incubated in RPMI (no phenol red) and 1 μg/ml calcein AM for 30 min and 5×10−2 ng/ml propidium iodide (PI) for 5 min. Cells were washed twice and resuspended in PBS. Cells were viewed using a fluorescent microscope (Olympus, Melville, N.Y.). At least 200 cells were counted. Cells calcein AM positive (green) in the absence of PI (red) were considered alive while cells undergoing apoptosis are green with red. Number of green cells or green with red cells was counted over total number of cells (green alone and green with red) to express cell survival or apoptotic cell percentage respectively.

caspase-9 [3] = test: Caspase-9 activity, LEHD-AFC assay, THP-1 lysates; format: cell-based, human; conditions: THP-1, 50 μM apigenin
Protocol: (§3) FIG. 3. Apigenin induces caspase activation in monocytic leukemia. THP-1 (top) and U937 (bottom) leukemia cells were treated for various lengths of time with 50 μM apigenin or DMSO (NT). (A and C) Caspase-9 activity was determined by the LEHDAFC assay. (B and D) Caspase-3 activity was determined by the DEVD-AFC assay. Data represents means ±SEM (N=3).
(§4) For measurements of caspase activity, cells were plated at a density of 1.5×10^6 cells/well. After treatment, cells extracts were prepared as previously described (Doseff, A. I., Baker J. H., Bourgeois T. A. and Wewers M. D. (2003) Interleukin-4-induced zpoptosis entails caspase activation and suppression of extracellular signal-regulated kinase phosphorylation. Am. J. Resp. Cell Mol. Biol., 29, 367-374). Protein extracts were incubated with 20 μM DEVD-AFC to determine caspase-3 activity or LEHD-AFC to determine caspase-9 activity (Enzyme Systems Products, Livermore, Calif.) in a cytobuffer as previously described (Doseff, A. I., Baker J. H., Bourgeois T. A. and Wewers M. D. (2003) Interleukin-4-induced zpoptosis entails caspase activation and suppression of extracellular signal-regulated kinase phosphorylation. Am. J. Resp. Cell Mol. Biol., 29, 367-374). Levels of released AFC were measured using Cytofluor 400 fluorimeter (Filters: excitation 400 nm, emission 508 nm; Perspective Co., Framingham, Mass.).

U937 cells [4] = test: Cell viability assay (CellTiter 96 / MTT, A490); format: cell-based, human; conditions: 24 h, reduced to
Protocol: (§5) FIG. 1. Effect of apigenin and naringenin in cell survival of cancer cells. (A) Structure of the flavonoids apigenin and naringenin. (B) THP-1, U937, A549, and MCF-7 cells were treated with various doses of apigenin or naringenin for 24 h. After the treatment, the percentage of cell proliferation was calculated as the ratio of treated cells to control cells as determined by the MTT method (A490). Data represents means ±SEM (N=9). […] Cells were plated at a density of 2×10^4 cells/well into 96-well plates and treated with flavonoids at indicated concentrations for 24 h. Absorbance at 490 nm (A490) was recorded using an ELISA plate reader (Bio-Tek ELx800, KC Junior, Winooski, Vt.).

THP-1 cells [5] = test: Cell viability assay (CellTiter 96 / MTT, A490); format: cell-based, human; conditions: THP-1, 50 to 500 μM apigenin, 24 h; reduced to
Protocol: as §5

MCF-7 cells = test: Cell viability assay (CellTiter 96 / MTT, A490); format: cell-based; conditions: MCF-7, apigenin, 24 h; reduced to
Protocol: as §5

A549 cells = test: Cell viability assay (CellTiter 96 / MTT, A490); format: cell-based; conditions: A549, apigenin, 24 h; reduced to
Protocol: as §5

THP-1 cells [6] = test: Cell survival and apoptosis by calcein AM/PI staining; format: cell-based, human
Protocol: as §1
(§6) FIG. 4. Caspase-3 activation is required for apigenin-induced apoptosis. THP-1 cells were treated for 12 h with 50 μM apigenin alone or pretreated with 20 μM DEVD-FMK for 1 h prior to the addition of apigenin. (A) Cells were then stained with calcein AM and 24 PI and the percentage of apoptotic cells was determined. (B) Lysates from cells treated as described above were used to determined caspase-3 activity by the DEVD-AFC assay. All data represents means ±SEM (N=5).
(§7) FIG. 7. Apigenin induced p38 activation is not required for apoptosis. A. Cells were pretreated for 1 h prior to addition of 50 μM apigenin or DMSO (−) with 10 or 25 μM concentrations of SB203580 or DMSO (−) for 12 h. The percentage of apoptotic cells was determined by calcein AM with PI stained cells. Data represents means ±SEM (N=5 p>0.05). B. Lysates from the same treatments were used to determined caspase-3 activity by the DEVD-AFC assay. Data represents means ±SEM (N=5 p>0.05).
as §2

p38 = test: Western blot of p38 phosphorylation in THP-1 cells; format: cell-based, human; conditions: THP-1, 50 μM apigenin, after 3 h
Protocol: A. THP-1 cells were treated with 50 μM apigenin for various lengths of time. Lysates were separated by SDS-PAGE, transferred and analyzed by immunoblots with anti-phospho-p38 (pp 38) and anti-total-p38 antibodies. B. THP-1 cells were treated for 6 hr with 50 μM apigenin alone (lane 2), treated with the apigenin diluent (lane 1), pretreatred with 10 or 25 μM SB203580 for 1 hr prior to the addition of apigenin (lanes 3 and 4) or with the SB203580 inhibitor alone (lanes 5 and 6).
Extracts from 3×10^6 cells were prepared by incubating cells for 30 min on ice in lysis buffer (50 mM Tris, 10 mM EDTA 0.5% NP-40, 10 mM Na-glycerophosphate, 5 mM Na-pyrophosphate, 50 mM NaF, 1 mM orthovanadate, 1 mM DTT, 0.1 mM PMSF, 2 μg/ml of protease inhibitors: chymostatin, pepstatin, antipain, and leupeptin). Cell lysates were centrifuged (14,000×g for 10 min at 4° C.) and the supernatants were stored for at −70° C. for future analysis. Equal amounts of protein were loaded and separated by SDS-PAGE, transferred onto nitrocellulose membranes and probed with antibodies of interest followed by horseradish peroxidase conjugated secondary antibody and visualized by enhanced chemiluminescence (Amersham, Arlington Heights, Ill.). […]

caspase-3 = test: Caspase-3 activity, DEVD-AFC assay, THP-1 lysates; format: cell-based, human; conditions: THP-1, 50 μM apigenin
Protocol: as §3, §6, §7
For measurements of caspase activity, cells were plated at a density of 1.5×10^6 cells/well. After treatment, cells extracts were prepared as previously described (Doseff, A. I., Baker J. H., Bourgeois T. A. and Wewers M. D. (2003) Interleukin-4-induced zpoptosis entails caspase activation and suppression of extracellular signal-regulated kinase phosphorylation. Am. J. Resp. Cell Mol. Biol., 29, 367-374). […] Levels of released AFC were measured using Cytofluor 400 fluorimeter (Filters: excitation 400 nm, emission 508 nm; Perspective Co., Framingham, Mass.).

caspase-9 [7] = test: Caspase-9 activity, LEHD-AFC assay, U937 lysates; format: cell-based, human; conditions: U937, 50 μM apigenin; remained high even after 24 h
Protocol: as §3, §4

How did the “conversion to another chemical entity in treated cells” value (THP-1 cells [1]) turn out when O=c1cc(-c2ccc(O)cc2)oc2cc(O)cc(O)c12 [apigenin] was run?
The value was “neither one of these two compounds is significantly converted”.

And the “decrease in cell survival” value (U937 cells [2]; 12 h)?
Its value is 10%.

And the “decrease in cell survival” value (U937 cells [2]; 24 h)?
The value was 50%.

What about the “caspase-9 activity, time course” value (caspase-9 [3]) of the same compound?
The value was “observed after 6 h of treatment with apigenin and remained high after 9 h of treatment, decreasing after 12 h”.

And the “cell proliferation (ratio of treated to control cells)” value (U937 cells [4]; U937, 50 μM apigenin)?
The value was 50%.

What about the “cell proliferation (ratio of treated to control cells)” value (U937 cells [4]; U937, higher concentrations of apigenin (above 50 μM)) of the same compound?
Its value is 20%.

And the “cell proliferation (ratio of treated to control cells)” value (THP-1 cells [5])?
Its value is “approximately 20%”.

And the “cell proliferation (ratio of treated to control cells)” value (MCF-7 cells)?
Its value is 80%.

And the “cell proliferation (ratio of treated to control cells)” value (A549 cells)?
The value was 80%.

What about the viability at 50 µM (THP-1 cells [6]; Homo sapiens, THP-1, 12 h, read-out: cell viability (survival)) of the same compound?
The viability at 50 µM was 30%.

What about the apoptotic cells (THP-1 cells [6]; THP-1, 50 μM apigenin alone, 12 h) of the same compound?
Its apoptotic cells is 70%.

What about the cell survival (THP-1 cells [6]; THP-1, 50 μM, 9 h, reduced to) of the same compound?
The cell survival was 80%.

And the “phosphorylation of p38” value (p38)?
Its value is “increase”.

What about the “caspase-3 activity, time course” value (caspase-3) of the same compound?
The value was “detected after 6 h and similarly to caspase-9, the activity was sustained at 9 h, but decreased after 12 h”.

And the “caspase-9 activity, time course” value (caspase-9 [7])?
Its value is “detected at 9 h”.
